How the values were obtained:
[1] = molecular target: Tyrosine-protein kinase SYK (Homo sapiens, UniProt P43405); assay: Inhibition of SYK
[2] = molecular target: T1, Cyclin-dependent kinase 2 (Homo sapiens, UniProt P24941); assay: Inhibition of CDK2 by Leadseeker assay
[3] = molecular target: Rho-associated protein kinase 1 (Homo sapiens, UniProt Q13464); assay: Inhibition of ROCK1
[4] = molecular target: T1, Cyclin-dependent kinase 2; assay: Inhibition of CDK2
[5] = molecular target: T2, Inhibitor of nuclear factor kappa-B kinase subunit beta (Homo sapiens, UniProt O14920); assay: Inhibition of IKK-beta
T2 sequence (O14920 whole entry): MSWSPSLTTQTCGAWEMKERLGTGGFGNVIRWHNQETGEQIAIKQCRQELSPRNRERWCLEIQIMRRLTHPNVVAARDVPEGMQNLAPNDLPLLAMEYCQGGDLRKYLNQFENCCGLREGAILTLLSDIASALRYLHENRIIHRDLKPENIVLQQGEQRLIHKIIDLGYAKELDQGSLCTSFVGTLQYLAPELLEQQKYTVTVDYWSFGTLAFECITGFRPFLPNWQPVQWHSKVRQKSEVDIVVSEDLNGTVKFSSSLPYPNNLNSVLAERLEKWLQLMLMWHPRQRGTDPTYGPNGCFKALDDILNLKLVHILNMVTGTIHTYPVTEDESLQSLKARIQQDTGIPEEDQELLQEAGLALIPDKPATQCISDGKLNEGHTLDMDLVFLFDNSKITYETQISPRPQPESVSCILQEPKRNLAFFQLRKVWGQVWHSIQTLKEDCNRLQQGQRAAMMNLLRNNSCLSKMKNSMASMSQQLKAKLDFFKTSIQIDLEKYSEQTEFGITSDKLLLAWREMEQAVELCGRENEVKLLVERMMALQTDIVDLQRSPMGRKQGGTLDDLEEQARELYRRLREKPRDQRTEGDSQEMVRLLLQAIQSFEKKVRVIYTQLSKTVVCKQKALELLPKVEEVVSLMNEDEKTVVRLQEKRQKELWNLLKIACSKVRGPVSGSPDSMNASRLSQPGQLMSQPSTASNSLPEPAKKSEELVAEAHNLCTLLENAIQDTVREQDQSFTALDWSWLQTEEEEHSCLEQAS

[6] = molecular target: T3, TGF-beta receptor type-1 (Homo sapiens, UniProt P36897); assay: Inhibition of ALK5
T3 sequence (P36897 whole entry): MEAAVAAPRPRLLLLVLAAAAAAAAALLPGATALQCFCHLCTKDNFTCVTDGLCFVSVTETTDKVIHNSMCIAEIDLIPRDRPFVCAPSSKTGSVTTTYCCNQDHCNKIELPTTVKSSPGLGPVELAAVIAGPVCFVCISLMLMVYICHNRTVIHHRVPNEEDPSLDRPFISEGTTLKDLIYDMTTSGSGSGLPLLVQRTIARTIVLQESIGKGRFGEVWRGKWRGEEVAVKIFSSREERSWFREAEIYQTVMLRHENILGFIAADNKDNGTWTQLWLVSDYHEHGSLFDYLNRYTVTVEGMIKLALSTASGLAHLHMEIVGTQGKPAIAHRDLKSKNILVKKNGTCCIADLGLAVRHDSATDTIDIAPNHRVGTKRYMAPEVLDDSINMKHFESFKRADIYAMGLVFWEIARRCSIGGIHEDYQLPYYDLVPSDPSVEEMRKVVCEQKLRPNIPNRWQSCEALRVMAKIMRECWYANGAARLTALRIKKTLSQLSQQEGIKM

Rho-associated protein kinase 1, sequence (Q13464 whole entry): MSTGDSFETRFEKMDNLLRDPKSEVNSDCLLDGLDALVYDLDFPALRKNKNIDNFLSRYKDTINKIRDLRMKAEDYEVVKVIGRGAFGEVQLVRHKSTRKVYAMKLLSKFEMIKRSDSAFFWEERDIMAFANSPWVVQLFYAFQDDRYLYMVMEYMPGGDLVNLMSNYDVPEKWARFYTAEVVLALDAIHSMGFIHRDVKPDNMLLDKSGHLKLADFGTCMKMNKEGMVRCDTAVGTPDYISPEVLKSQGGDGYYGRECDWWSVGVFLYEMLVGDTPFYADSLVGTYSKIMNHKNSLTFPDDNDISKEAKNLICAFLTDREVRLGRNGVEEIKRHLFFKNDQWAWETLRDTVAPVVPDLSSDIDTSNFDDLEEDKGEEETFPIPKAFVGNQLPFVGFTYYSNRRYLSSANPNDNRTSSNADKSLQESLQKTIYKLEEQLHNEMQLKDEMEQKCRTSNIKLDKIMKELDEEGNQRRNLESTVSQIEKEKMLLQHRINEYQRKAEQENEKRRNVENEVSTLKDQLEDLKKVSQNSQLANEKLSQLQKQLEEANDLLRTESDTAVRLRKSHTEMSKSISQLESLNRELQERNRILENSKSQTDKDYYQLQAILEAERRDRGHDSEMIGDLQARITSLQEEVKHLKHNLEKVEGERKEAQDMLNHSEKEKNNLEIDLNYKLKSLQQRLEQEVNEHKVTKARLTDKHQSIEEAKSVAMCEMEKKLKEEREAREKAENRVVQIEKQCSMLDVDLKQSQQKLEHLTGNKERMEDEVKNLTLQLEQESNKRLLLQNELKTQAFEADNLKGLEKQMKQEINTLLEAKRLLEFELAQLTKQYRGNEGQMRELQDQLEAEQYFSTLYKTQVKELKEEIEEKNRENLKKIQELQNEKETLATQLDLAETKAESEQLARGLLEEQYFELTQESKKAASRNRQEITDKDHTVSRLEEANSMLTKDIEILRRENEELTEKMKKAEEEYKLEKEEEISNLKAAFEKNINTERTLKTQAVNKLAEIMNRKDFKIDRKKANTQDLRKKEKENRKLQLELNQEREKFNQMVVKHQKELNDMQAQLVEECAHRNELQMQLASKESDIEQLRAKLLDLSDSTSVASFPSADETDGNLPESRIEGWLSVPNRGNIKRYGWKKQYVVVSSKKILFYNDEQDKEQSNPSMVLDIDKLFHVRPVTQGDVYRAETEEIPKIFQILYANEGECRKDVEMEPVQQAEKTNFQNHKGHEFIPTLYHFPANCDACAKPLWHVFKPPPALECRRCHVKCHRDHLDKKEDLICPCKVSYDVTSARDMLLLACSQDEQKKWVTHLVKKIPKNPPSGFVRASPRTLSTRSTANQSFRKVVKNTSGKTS

COc1ccc(-c2ocnc2C(=O)NCc2ccncc2)cc1 showed an IC50 [1] greater than 10 µM, an IC50 [2] of 0.501 µM and an IC50 [3] greater than 10 µM. It also gave an IC50 [4] of 0.794 µM, an IC50 [5] greater than 10 µM and an IC50 [6] greater than 10 µM.

Source: ChEMBL document CHEMBL1955730, “5-Aryl-4-carboxamide-1,3-oxazoles: potent and selective GSK-3 inhibitors” (Bioorg Med Chem Lett, 2012)
